These results are taken from US10730913B1, “Antimicrobial analogues of gramicidin S” (priority 2018, dated 2020).

Common to all, as to format: cell-based
Data set [1] relates to Human red blood cells (hRBCs). In words: Hemolysis assay using whole human blood. As to conditions: for Hemolytic Activity (% Hemolysis): hRBCs, 15 min at 37° C., relative to 1.0% triton X-100. The procedure: Hemolytic Activity: The hemolytic activity of the compounds disclosed herein was also tested. A hemolysis assay was performed using whole human blood (Bioreclamation). […] Cells were incubated for 15 min at 37° C. before being centrifuged at 5500 g for 1 min to pellet nonlysed hRBCs. The supernatant was removed, added to a 96-well microtiter plate, and the OD543 was read using a Biotek synergy2 plate reader. The negative control was vehicle only (DMSO), and the positive control was 1.0% triton X-100.

Data set [2] has as its system Pseudomonas aeruginosa. In words: MIC determination against ESKAPE pathogens (broth culture, 96-well, turbidity). As to conditions: Pseudomonas aeruginosa strain 1419; 37° C. As for the experimental part: (§1) The antimicrobial activity of the compounds disclosed herein was tested against a variety of bacteria. The bacterial strains comprised a panel of drug-resistant gram-positive and gram-negative bacteria known as ESKAPE pathogens. The minimum inhibitory concentration (MIC) for the compounds were determined as follows. Broth cultures of ESKAPE strains were grown overnight before being diluted 1 in 1000 in fresh media. Sterile 96-well plates were loaded with culture, and compounds (in DMSO) were added at decreasing concentrations to equal a total volume of 200 μL per well. Care was taken to not add more than 2.0% DMSO to any well. Plates were then incubated at 37° C., and MICs determined after 24 h by visual inspection for a lack of turbidity in wells. All assays were performed in triplicate with identical results obtained.

The subject of data set [3] is Staphylococcus aureus. The description is as above. As to conditions: Staphylococcus aureus strain 635; 37° C. As for the experimental part: as §1
In data set [4] the test system is Acinetobacter baumannii. Described as above. Conditions: Acinetobacter baumannii strain 5075; 37° C. As for the experimental part:
as §1

In data set [5] the test system is Enterococcus faecium. Described as above. As to conditions: Enterococcus faecium strain 1450; 37° C. The procedure:
as §1

Data set [6] relates to Enterobacter cloacae. The data set is described as above. As to conditions: Enterobacter cloacae strain 1454; 37° C. As for the experimental part: as §1
The subject of data set [7] is gram-negative bacteria. In words: Antimicrobial activity, summary for gram-negative bacteria. Conditions: compared to GS. The procedure:
as §1

Numbered stars: 1 amine (or outer) side, 2 acyl side, 3 side chain; on linkers, the order of the positions; unused ones are H or OH. Square brackets hold non-standard residues; d marks the D form. Peptide text beside a SMILES is read from it. X1 = NN([C@H](Cc1ccccc1)C(=O)[*:2])[*:1]; Orn(Nα-NH2) = NCCC[C@H](NN)C(=O)O; Orn = NCCC[C@H](N)C(=O)O

As for `CC(C)C[C@@H]1NC(=O)[C@H](CCCN)NC(=O)[C@H](C(C)C)NC(=O)[C@@H]2CCCN2C(=O)[C@@H](Cc2ccccc2)N(N)C(=O)[C@H](CC(C)C)NC(=O)[C@H](CCCN)NC(=O)[C@H](C(C)C)NC(=O)[C@@H]2CCCN2C(=O)[C@@H](Cc2ccccc2)NC1=O` [Compound 1] (HELM PEPTIDE1{L.[dF].P.V.[Orn].L.[NN([C@H](Cc1ccccc1)C(=O)[*:2])[*:1]].P.V.[Orn]}$PEPTIDE1,PEPTIDE1,1:R1-10:R2$$$V2.0), the “Hemolytic Activity (% Hemolysis)” value in data set [1] (6.25 μM), in data set [1] (12.5 μM), in data set [1] (25 μM) and in data set [1] (50 μM) was 0.00% in each case. In data set [2], the “MC90 Results, Pa (−)” value is >50 µM. The “MC90 Results, Sa (+)” value in data set [3] is >50 µM. Besides, the “MC90 Results, Ab (−)” value in data set [4] was >50 µM. Also, the “MC90 Results, Ef (+)” value in data set [5] was >50 µM. For the same compound, the “MC90 Results, Ec (−)” value in data set [6] is >50 µM.
`CC(C)C[C@@H]1NC(=O)[C@H](CCCN)NC(=O)[C@H](C(C)C)NC(=O)[C@@H]2CCCN2C(=O)[C@@H](Cc2ccccc2)N(N)C(=O)[C@H](CC(C)C)NC(=O)[C@H](CCCN)NC(=O)[C@H](C(C)C)NC(=O)[C@@H]2CCCN2C(=O)[C@@H](Cc2ccccc2)N(N)C1=O` [Compound 2] (HELM PEPTIDE1{L.[NN([C@H](Cc1ccccc1)C(=O)[*:2])[*:1]].P.V.[Orn].L.[NN([C@H](Cc1ccccc1)C(=O)[*:2])[*:1]].P.V.[Orn]}$PEPTIDE1,PEPTIDE1,1:R1-10:R2$$$V2.0): the “Hemolytic Activity (% Hemolysis)” value in data set [1] (6.25 μM) is on record as 0.00%; in data set [1] (12.5 μM), 0.00%; in data set [1] (25 μM), 2.84%; in data set [1] (50 μM) it was 11.24%. For the same compound, the “MC90 Results, Pa (−)” value in data set [2] amounted to 35 µM. For the same compound, the “MC90 Results, Sa (+)” value in data set [3] was found to be 4 µM. For the same compound, the “MC90 Results, Ab (−)” value in data set [4] stood at 12.5 µM. The “MC90 Results, Ef (+)” value in data set [5] is 4 µM. In addition, the “MC90 Results, Ec (−)” value in data set [6] was >50 µM.
For the compound `CC(C)C[C@@H]1NC(=O)[C@H](CCCN)NC(=O)[C@H](C(C)C)NC(=O)[C@@H]2CCCN2C(=O)[C@@H](Cc2ccccc2)NC(=O)[C@H](CC(C)C)NC(=O)[C@H](CCCN)N(N)C(=O)[C@H](C(C)C)NC(=O)[C@@H]2CCCN2C(=O)[C@@H](Cc2ccccc2)NC1=O` [Compound 3] (HELM PEPTIDE1{L.[dF].P.V.[Orn].L.[dF].P.V.[NCCC[C@@H](C(=O)[*:2])N(N)[*:1]]}$PEPTIDE1,PEPTIDE1,1:R1-10:R2$$$V2.0), the “Hemolytic Activity (% Hemolysis)” value in data set [1] (6.25 μM) came to 0.00%; in data set [1] (12.5 μM) it was 0.00%; in data set [1] (25 μM), 1.49%; in data set [1] (50 μM) it was 13.68%. Also, the “MC90 Results, Pa (−)” value in data set [2] stood at 13 µM. Also, the “MC90 Results, Sa (+)” value in data set [3] is 2 µM. For the same compound, the “MC90 Results, Ab (−)” value in data set [4] is 6.5 µM. In data set [5], the “MC90 Results, Ef (+)” value worked out at 3 µM. Moreover, the “MC90 Results, Ec (−)” value in data set [6] turned out to be 30 µM.
With `CC(C)C[C@@H]1NC(=O)[C@H](CCCN)N(N)C(=O)[C@H](C(C)C)NC(=O)[C@@H]2CCCN2C(=O)[C@@H](Cc2ccccc2)N(N)C(=O)[C@H](CC(C)C)NC(=O)[C@H](CCCN)NC(=O)[C@H](C(C)C)NC(=O)[C@@H]2CCCN2C(=O)[C@@H](Cc2ccccc2)NC1=O` [Compound 4] (HELM PEPTIDE1{L.[dF].P.V.[Orn].L.[NN([C@H](Cc1ccccc1)C(=O)[*:2])[*:1]].P.V.[NCCC[C@@H](C(=O)[*:2])N(N)[*:1]]}$PEPTIDE1,PEPTIDE1,1:R1-10:R2$$$V2.0), the “Hemolytic Activity (% Hemolysis)” value in data set [1] (6.25 μM) is recorded as 0.00%; in data set [1] (12.5 μM), 0.00%; in data set [1] (25 μM) it was 1.98%; in data set [1] (50 μM), 14.00%. Besides, the “MC90 Results, Pa (−)” value in data set [2] stood at 15 µM. Besides, the “MC90 Results, Sa (+)” value in data set [3] worked out at 2 µM. Also, in data set [4], the “MC90 Results, Ab (−)” value worked out at 6.5 µM. For the same compound, the “MC90 Results, Ef (+)” value in data set [5] came to 3 µM. Besides, in data set [6], the “MC90 Results, Ec (−)” value came out at 30 µM.
Regarding `CC(C)C[C@@H]1NC(=O)[C@H](CCCN)NC(=O)[C@H](C(C)C)NC(=O)[C@@H]2CCCN2C(=O)[C@@H](Cc2ccccc2)N(N)C(=O)[C@H](CC(C)C)NC(=O)[C@H](CCCN)N(N)C(=O)[C@H](C(C)C)NC(=O)[C@@H]2CCCN2C(=O)[C@@H](Cc2ccccc2)N(N)C1=O` [Compound 5] (cyclo(L[X1]PV[Orn]L[X1]PV[Orn(Nα-NH2)])), the “Hemolytic Activity (% Hemolysis)” value in data set [1] (6.25 μM) is recorded as 0.21%; in data set [1] (12.5 μM), 0.00%; in data set [1] (25 μM), 2.82%; in data set [1] (50 μM), 17.93%.
Taken in the same sequence, the figures for `CC(C)C[C@@H]1NC(=O)[C@H](CCCN)NC(=O)[C@H](C(C)C)NC(=O)[C@@H]2CCCN2C(=O)[C@@H](Cc2ccccc2)N(N)C(=O)[C@H](CC(C)C)NC(=O)[C@H](CCCN)N(N)C(=O)[C@H](C(C)C)NC(=O)[C@@H]2CCCN2C(=O)[C@@H](Cc2ccccc2)NC1=O` [Compound 6] (HELM PEPTIDE1{L.[dF].P.V.[NCCC[C@@H](C(=O)[*:2])N(N)[*:1]].L.[NN([C@H](Cc1ccccc1)C(=O)[*:2])[*:1]].P.V.[Orn]}$PEPTIDE1,PEPTIDE1,1:R1-10:R2$$$V2.0) were 0.00%, 0.00%, 3.24% and 17.91%.
For the compound `CC(C)C[C@@H]1NC(=O)[C@H](CCCN)N(N)C(=O)[C@H](C(C)C)NC(=O)[C@@H]2CCCN2C(=O)[C@@H](Cc2ccccc2)NC(=O)[C@H](CC(C)C)NC(=O)[C@H](CCCN)N(N)C(=O)[C@H](C(C)C)NC(=O)[C@@H]2CCCN2C(=O)[C@@H](Cc2ccccc2)NC1=O` [Compound 7] (HELM PEPTIDE1{L.[dF].P.V.[NCCC[C@@H](C(=O)[*:2])N(N)[*:1]].L.[dF].P.V.[NCCC[C@@H](C(=O)[*:2])N(N)[*:1]]}$PEPTIDE1,PEPTIDE1,1:R1-10:R2$$$V2.0), the “Hemolytic Activity (% Hemolysis)” value is on record as 0.00% in data set [1] (6.25 μM), 0.21% in data set [1] (12.5 μM), 3.57% in data set [1] (25 μM) and 15.84% in data set [1] (50 μM). In data set [2], the “MC90 Results, Pa (−)” value is 10 µM. Moreover, the “MC90 Results, Sa (+)” value in data set [3] is 2 µM. In addition, the “MC90 Results, Ab (−)” value in data set [4] stood at 4 µM. Besides, in data set [5], the “MC90 Results, Ef (+)” value was found to be 2 µM. Moreover, in data set [6], the “MC90 Results, Ec (−)” value is 20 µM. The “activity against gram-negative bacteria” value in data set [7] is recorded as “improved significantly”.
As for `CC(C)C[C@@H]1NC(=O)[C@H](CCCN)N(N)C(=O)[C@H](C(C)C)NC(=O)[C@@H]2CCCN2C(=O)[C@@H](Cc2ccccc2)N(N)C(=O)[C@H](CC(C)C)NC(=O)[C@H](CCCN)N(N)C(=O)[C@H](C(C)C)NC(=O)[C@@H]2CCCN2C(=O)[C@@H](Cc2ccccc2)NC1=O` [Compound 8] (cyclo(L[dF]PV[Orn(Nα-NH2)]L[X1]PV[Orn(Nα-NH2)])), the “Hemolytic Activity (% Hemolysis)” value in data set [1] (6.25 μM) amounted to 0.00%; in data set [1] (12.5 μM) it was 0.88%; in data set [1] (25 μM), 2.91%; in data set [1] (50 μM), 15.07%. The “MC90 Results, Pa (−)” value in data set [2] is 12 µM. Also, the “MC90 Results, Sa (+)” value in data set [3] was found to be 2 µM. For the same compound, in data set [4], the “MC90 Results, Ab (−)” value came out at 6 µM. Further, the “MC90 Results, Ef (+)” value in data set [5] worked out at 2 µM. Further, in data set [6], the “MC90 Results, Ec (−)” value was >50 µM.
Regarding `CC(C)C[C@@H]1NC(=O)[C@H](CCCN)N(N)C(=O)[C@H](C(C)C)NC(=O)[C@@H]2CCCN2C(=O)[C@@H](Cc2ccccc2)N(N)C(=O)[C@H](CC(C)C)NC(=O)[C@H](CCCN)N(N)C(=O)[C@H](C(C)C)NC(=O)[C@@H]2CCCN2C(=O)[C@@H](Cc2ccccc2)N(N)C1=O` [Compound 9] (cyclo(L[X1]PV[Orn(Nα-NH2)]L[X1]PV[Orn(Nα-NH2)])), the “toxicity to human cells compared to GS” value in data set [1] is “exception”. Moreover, the “Hemolytic Activity (% Hemolysis)” value is listed as 0.00% in data set [1] (6.25 μM), 2.75% in data set [1] (12.5 μM), 6.19% in data set [1] (25 μM) and 25.01% in data set [1] (50 μM). In addition, in data set [2], the “MC90 Results, Pa (−)” value came out at 15 µM. Besides, the “MC90 Results, Sa (+)” value in data set [3] was 2 µM. Moreover, in data set [4], the “MC90 Results, Ab (−)” value came to 5 µM. Further, the “MC90 Results, Ef (+)” value in data set [5] worked out at 2 µM. The “MC90 Results, Ec (−)” value in data set [6] was >50 µM.
